Assay results published in US4843062A, “N-acyl-N-napthoylglycines as aldose reductase inhibitors” (American Home Products Corporation, priority 1987, dated 1989).
Like-named read-outs stand apart in the source and are kept apart here.

How the values were obtained:
aldose reductase = molecular target: T1, aldose reductase (Bos taurus, UniProt P16116); test: Aldose reductase inhibition in vitro (enzyme preparation from bovine lens, modified Hayman and Kinoshita procedure); assay type: biochemical; settings: for inhibition at 10 µM / inhibition at 1 µM: read-out: % Inhibition IN VITRO; for inhibition at 0.1 µM / % Inhibition IN VITRO: 10^-7 M
T1 construct: preparation of the enzyme from bovine lens; from tissue; host or cells: bovine lens
Procedure: (§1) Only two minor reagent changes were made: (a) The rinsing mixture was an aqueous 5% (w/v) trichloroacetic acid solution and (b) the stock solution was prepared by dissolving 25 mg of dulcitol in 100 mL of an aqueous trichloroacetic acid solution. [N.B.: For each experiment the average value found in the tissue from rats fed the glucose diet was subtracted from the individual values found in the corresponding tissue in galactose-fed rats to obtain the amount of polyol accumulated.] […] In the present case the procedure of Hayman and Kinoshita was modified in that the final chromatography step was omitted in the preparation of the enzyme from bovine lens.

[1] = test system: lens (galactitol accumulation); test: Galactitol (dulcitol) accumulation in lens of galactosemic rats; assay type: in vivo, rat (male, Sprague-Dawley); settings: four days
Excerpt: (§2) The aldose reductase inhibiting property of the compounds of this invention and the utilization of the compounds in preventing, diminishing and alleviating diabetic complications are demonstrable in experiments using galactosemic rats, see Dvornik et al, Science, 182, 1146 (1973). Such experiments are exemplified hereinbelow after the listing of the following general comments pertaining to these experiments.
(§3) (a) Four or more groups of six male rats, 50-70 g, Sprague-Dawley strain, were used. The first group, the control group, was fed a mixture of laboratory chow (rodent Laboratory Chow, Purina) and glucose at 20% (w/w %) concentration. The untreated galactosemic group and the drug-treated groups were fed a similar diet in which galactose is substituted for glucose. The test compound was either admixed to the diet or administered by gavage. In experiments involving compound administration in the diet, the average dose administered was calculated from the actual food intake of the animals in each group. The concentration of galactose in the diet of the treated groups was the same as that for the untreated galactosemic group.
(§4) (b) After four days, the animals were killed by decapitation. The eyeballs were removed and punctured with a razor blade; the freed lenses were rolled gently on filter paper and weighed. The sciatic nerves were dissected as completely as possible and weighed. Both tissues when frozen can be kept up to two weeks before being analyzed for galactitol.
(c) The polyol determination was performed by a modification of the procedure of M. Kraml and L. Cosyns, Clin. Biochem., 2,373 (1969). Only two minor reagent changes were made: (a) The rinsing mixture was an aqueous 5% (w/v) trichloroacetic acid solution and (b) the stock solution was prepared by dissolving 25 mg of dulcitol in 100 mL of an aqueous trichloroacetic acid solution. [N.B.: For each experiment the average value found in the tissue from rats fed the glucose diet was subtracted from the individual values found in the corresponding tissue in galactose-fed rats to obtain the amount of polyol accumulated.] The aldose reductase inhibiting effects of the compounds of formula (I) were also tested by employing an in vitro testing procedure similar to that described by S. Hayman and J. H. Kinoshita, J. Biol. Chem., 240,877 (1965). In the present case the procedure of Hayman and Kinoshita was modified in that the final chromatography step was omitted in the preparation of the enzyme from bovine lens.
(§5) The figures under L, N, and D represent the percentage decrease of galactitol accumulation in the tissues of the lens, sciatic nerve, and diaphragm, respectively, for treated rats as compared to untreated rats.

[2] = test system: sciatic nerve (galactitol accumulation); test: Galactitol (dulcitol) accumulation in sciatic nerve of galactosemic rats; assay type: in vivo, rat (male, Sprague-Dawley); settings: four days
Excerpt: (§6) Such experiments are exemplified hereinbelow after the listing of the following general comments pertaining to these experiments.
as §3, with “The untreated galactosemic group and the drug-treated groups were fed a similar diet in which galactose is substituted for glucose.” left out
as §4
as §1, with “(c) The polyol determination was performed by a modification of the procedure of M. Kraml and L. Cosyns, Clin. Biochem., 2,373 (1969). Only” for “Only”
as §5

[3] = test system: diaphragm (galactitol accumulation); test: Galactitol (dulcitol) accumulation in diaphragm of galactosemic rats; assay type: in vivo, rat (male, Sprague-Dawley); settings: four days
Excerpt: as §6
as §3, with “The untreated galactosemic group and the drug-treated groups were fed a similar diet in which galactose is substituted for glucose.” left out
as §1, with “(c) The polyol determination was performed by a modification of the procedure of M. Kraml and L. Cosyns, Clin. Biochem., 2,373 (1969). Only” for “Only”
as §5

rats fed galactose = test: Galactosemic rat experiments; assay type: in vivo, rat (male, Sprague-Dawley); settings: 57 mg/kg/day versus tolrestat at 9 mg/kg/day
Excerpt: as §2, §3
(b) After four days, the animals were killed by decapitation. […] Both tissues when frozen can be kept up to two weeks before being analyzed for galactitol. […]

`O=CN(CC(=O)O)C(=O)c1cccc2c(Br)cccc12` [Example 14] gave an inhibition at 10 µM (aldose reductase; 10^-5 M) of 90%, an inhibition at 1 µM (aldose reductase; 10^-6 M) of 73% and an inhibition at 0.1 µM (aldose reductase) of 22%. The “% Lowering dulcitol accumulation IN VIVO (%)L” value ([1]; 104 mg/kg) was “N.S” and the “% Lowering dulcitol accumulation IN VIVO (%)N” value ([2]; 104 mg/kg) was “N.S”.

`COc1ccc2c(C(=O)N(CC(=O)O)C(=O)OCC(C)(C)C)cccc2c1C(F)(F)F` [Example 5] showed an inhibition at 10 µM (aldose reductase; 10^-5 M) of 90%, an inhibition at 1 µM (aldose reductase; 10^-6 M) of 64% and an inhibition at 0.1 µM (aldose reductase) of 18%. The “% Lowering dulcitol accumulation IN VIVO (%)L” value ([1]; 105 mg/kg) was “N.S”, the “% Lowering dulcitol accumulation IN VIVO (%)N” value ([2]; 105 mg/kg) was “N.S” and the “% Lowering dulcitol accumulation IN VIVO (%)D” value ([3]; 105 mg/kg) was “N.S”.

In the case of `COc1ccc2c(C(=O)N(CC(=O)O)C(=O)OCc3ccccc3)cccc2c1C(F)(F)F`, the inhibition at 10 µM (aldose reductase; 10^-5 M) is reported as 95%, the inhibition at 1 µM (aldose reductase; 10^-6 M) is reported as 89% and the inhibition at 0.1 µM (aldose reductase) is reported as 66%. The “% Lowering dulcitol accumulation IN VIVO (%)L” value ([1]; 67 mg/kg) was “N.S”, the “% Lowering dulcitol accumulation IN VIVO (%)N” value ([2]; 67 mg/kg) was “N.S” and the “% Lowering dulcitol accumulation IN VIVO (%)D” value ([3]; 67 mg/kg) was “N.S”.

`COC(=O)N(CC(=O)O)C(=S)c1cccc2c(C(F)(F)F)c(OC)ccc12` [Example 18a, N-[[6-Methoxy-5-(trifluoromethyl)-1-naphthalenyl]thioxomethyl]-N-[(methoxy)carbonyl]glycine] gave an inhibition at 1 µM (aldose reductase; 10^-6 M) of 88%, an inhibition at 0.1 µM (aldose reductase) of 29% and an inhibition at 10 µM (aldose reductase) of 94%. For the same compound, the “% Lowering dulcitol accumulation IN VIVO (%)L” value ([1]; 51 mg/kg) was “N.S” and the “% Lowering dulcitol accumulation IN VIVO (%)N” value ([2]; 51 mg/kg) was “N.S”.

`CCOC(=O)N(CC(=O)O)C(=O)c1cccc2c(C(F)(F)F)c(OC)ccc12` [Example 1, N-[[6-Methoxy-5-(trifluoromethyl)-1-naphthalenyl]carbonyl]-N-[(ethoxy)carbonyl]glycine] showed an inhibition at 10 µM (aldose reductase; 10^-5 M) of 97%, an inhibition at 0.1 µM (aldose reductase) of 47% and an inhibition at 1 µM (aldose reductase) of 94%. The “% Lowering dulcitol accumulation IN VIVO (%)N” value ([2]; 57 mg/kg) was 56%, the “% Lowering dulcitol accumulation IN VIVO (%)N” value ([2]; 97 mg/kg) was 90% and the “results compared with tolrestat” value (rats fed galactose) was “comparable results”.

For `COc1ccc2c(C(=O)N(CC(=O)O)C(=O)N(C)C)cccc2c1C(F)(F)F` [Example 11, N-[(Dimethylamino)carbonyl]-N-[[6-methoxy-5-(trifluoromethyl)-1-naphthalenyl]carbonyl]glycine], the inhibition at 10 µM (aldose reductase; 10^-5 M) was 22%, the inhibition at 1 µM (aldose reductase; 10^-6 M) was 3% and the “% Inhibition IN VITRO” value (aldose reductase) was “N.S”.

`COc1ccc2c(C(=O)N(CC(=O)O)C(=O)OCc3ccc(Cl)c([N+](=O)[O-])c3)cccc2c1C(F)(F)F` [Example 7] showed an inhibition at 10 µM (aldose reductase; 10^-5 M) of 95%, an inhibition at 1 µM (aldose reductase; 10^-6 M) of 89% and an inhibition at 0.1 µM (aldose reductase) of 49%. The “% Lowering dulcitol accumulation IN VIVO (%)L” value ([1]; 107 mg/kg) was “N.S”, the “% Lowering dulcitol accumulation IN VIVO (%)N” value ([2]; 107 mg/kg) was “N.S” and the “% Lowering dulcitol accumulation IN VIVO (%)D” value ([3]; 107 mg/kg) was “N.S”.

For `CN(C)C(=O)N(CC(=O)O)C(=O)c1cccc2c(Br)cccc12` [Example 17], the inhibition at 10 µM (aldose reductase; 10^-5 M) was 23%, the inhibition at 1 µM (aldose reductase; 10^-6 M) was 4% and the “% Inhibition IN VITRO” value (aldose reductase) was “N.S”.

Compound `CC(=O)N(CC(=O)O)C(=O)c1cccc2c(Br)cccc12` [Example 15] has an inhibition at 10 µM (aldose reductase; 10^-5 M) of 82%, an inhibition at 1 µM (aldose reductase; 10^-6 M) of 41% and an inhibition at 0.1 µM (aldose reductase) of 7%. The “% Lowering dulcitol accumulation IN VIVO (%)L” value ([1]; 112 mg/kg) was “N.S”, the “% Lowering dulcitol accumulation IN VIVO (%)N” value ([2]; 112 mg/kg) was “N.S” and the “% Lowering dulcitol accumulation IN VIVO (%)D” value ([3]; 112 mg/kg) was “N.S”.

With `COc1ccc2c(C(=O)N(CC(=O)O)C(=O)OC(C)C)cccc2c1C(F)(F)F` [Example 4] the “% Lowering dulcitol accumulation IN VIVO (%)L” value ([1]; dose not given (N.S.)) was “N.S”, the “% Lowering dulcitol accumulation IN VIVO (%)N” value ([2]; dose not given (N.S.)) was “N.S” and the “% Lowering dulcitol accumulation IN VIVO (%)D” value ([3]; dose not given (N.S.)) was “N.S”.
